Measured values: publication PMC9887116, “SDI-118, a novel procognitive SV2A modulator: First-in-human randomized controlled trial including PET/fMRI assessment of target engagement” (Frontiers in Pharmacology, 2023)
Where “and” joins values, the source holds several entries; their conditions need not be identical. Equal entries are not always repeated.

What was measured:
[1] = test system: screening panel of receptors and enzymes; assay: screening panel of receptors and enzymes; details: up to a concentration of 10 µM
Experimental: There were no SAEs or adverse events leading to subject discontinuation from the study. […] The most frequently reported drug related TEAEs were dizziness, hypersomnia, and somnolence, the latter reported only at the highest dose tested (i.e. 80 mg). The onset time of these events was generally short after dose administration, and their duration was usually short with resolution on the same day of dosing or the day after at the most. These mild and transient side effects started at the 10 mg dose and were also observed at higher doses. […] Occupancy at the higher doses would then progressively increase to a maximum of 96% of the predicted maximum at the 80 mg dose. Thus, the observed mild and transient side effects could be consistent with a target related effect seen, in some individuals, at occupancy levels greater than ∼60%. […] Further studies will elucidate this. None of the observed clinically significant changes in vital signs, laboratory parameters, and ECG intervals during the study were considered related to the administration of SDI-118.

hERG = hERG (Homo sapiens, UniProt Q12809); assay: preclinical in vitro hERG inhibition; format: biochemical; details: preclinical in vitro studies
Sequence of hERG (Q12809 whole entry): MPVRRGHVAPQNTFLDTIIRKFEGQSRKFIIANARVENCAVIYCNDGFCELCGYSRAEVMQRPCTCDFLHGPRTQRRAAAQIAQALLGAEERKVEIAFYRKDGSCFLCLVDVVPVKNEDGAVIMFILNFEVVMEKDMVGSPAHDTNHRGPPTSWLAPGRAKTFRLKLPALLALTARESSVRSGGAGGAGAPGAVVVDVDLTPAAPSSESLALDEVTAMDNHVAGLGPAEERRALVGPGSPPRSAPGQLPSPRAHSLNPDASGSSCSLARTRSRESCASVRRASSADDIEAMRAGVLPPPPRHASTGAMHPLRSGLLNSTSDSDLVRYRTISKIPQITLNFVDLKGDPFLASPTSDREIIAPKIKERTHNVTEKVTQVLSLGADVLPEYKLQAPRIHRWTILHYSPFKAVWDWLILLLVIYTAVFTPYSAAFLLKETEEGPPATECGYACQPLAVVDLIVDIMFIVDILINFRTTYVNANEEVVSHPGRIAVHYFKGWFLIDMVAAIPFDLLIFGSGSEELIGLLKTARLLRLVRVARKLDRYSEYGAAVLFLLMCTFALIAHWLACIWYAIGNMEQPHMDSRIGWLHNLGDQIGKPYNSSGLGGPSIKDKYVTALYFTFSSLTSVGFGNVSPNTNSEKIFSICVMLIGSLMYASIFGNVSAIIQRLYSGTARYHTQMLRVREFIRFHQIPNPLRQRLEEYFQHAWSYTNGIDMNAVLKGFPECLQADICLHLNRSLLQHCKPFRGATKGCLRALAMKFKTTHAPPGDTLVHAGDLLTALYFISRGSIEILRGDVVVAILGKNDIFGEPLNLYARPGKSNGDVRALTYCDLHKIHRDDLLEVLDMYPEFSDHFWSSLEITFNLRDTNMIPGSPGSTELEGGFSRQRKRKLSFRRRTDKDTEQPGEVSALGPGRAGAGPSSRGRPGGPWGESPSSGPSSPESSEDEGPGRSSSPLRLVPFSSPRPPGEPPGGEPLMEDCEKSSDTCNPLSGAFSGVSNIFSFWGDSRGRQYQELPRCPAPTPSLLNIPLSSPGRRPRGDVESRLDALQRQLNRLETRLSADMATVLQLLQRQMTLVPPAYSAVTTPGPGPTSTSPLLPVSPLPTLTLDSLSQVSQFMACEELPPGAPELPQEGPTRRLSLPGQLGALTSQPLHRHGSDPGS

SV2A [2] = assay: minimum anticipated biological effect level in experimental rodent models; format: in vivo
Experimental: The study consisted of three parts. […] No stratification was performed.

[3] = in vivo
Experimental: The study consisted of three parts. Part A was a double-blind, placebo-controlled (in a 6:2 SDI-118:placebo ratio), single ascending oral dose study performed in 16 subjects equally divided into two cohorts. […] Dose levels of .3, 1, 3, 10, 30, 60, 90 and 120 mg of SDI-118 were set to be administered in an alternating panel design with a minimum washout period of 7 days between subsequent periods. In each period two different sentinel subjects were dosed (in a 1:1 SDI-118:placebo ratio) and followed-up for safety for at least 48 h before the rest of the cohort received the same dose level of the study drug.
Safety and tolerability were assessed by questioning for adverse events (AEs), vital signs measurements (supine and orthostatic), 12-lead ECGs (always acquired in triplicate except during screening and post-study visit), standard lab safety tests on blood and urine samples, and physical and neurological examinations at regular time-points throughout the study.

SV2A [4] = target: T1, SV2A (Homo sapiens, UniProt Q7L0J3); assay: brain SV2A occupancy by [11C]-UCB-J PET and PK/PD Emax model, Part B; format: in vivo, human (healthy male subjects)
T1 construct: from tissue; host or cells: brain of healthy male subjects, in vivo
T1 sequence (Q7L0J3 whole entry): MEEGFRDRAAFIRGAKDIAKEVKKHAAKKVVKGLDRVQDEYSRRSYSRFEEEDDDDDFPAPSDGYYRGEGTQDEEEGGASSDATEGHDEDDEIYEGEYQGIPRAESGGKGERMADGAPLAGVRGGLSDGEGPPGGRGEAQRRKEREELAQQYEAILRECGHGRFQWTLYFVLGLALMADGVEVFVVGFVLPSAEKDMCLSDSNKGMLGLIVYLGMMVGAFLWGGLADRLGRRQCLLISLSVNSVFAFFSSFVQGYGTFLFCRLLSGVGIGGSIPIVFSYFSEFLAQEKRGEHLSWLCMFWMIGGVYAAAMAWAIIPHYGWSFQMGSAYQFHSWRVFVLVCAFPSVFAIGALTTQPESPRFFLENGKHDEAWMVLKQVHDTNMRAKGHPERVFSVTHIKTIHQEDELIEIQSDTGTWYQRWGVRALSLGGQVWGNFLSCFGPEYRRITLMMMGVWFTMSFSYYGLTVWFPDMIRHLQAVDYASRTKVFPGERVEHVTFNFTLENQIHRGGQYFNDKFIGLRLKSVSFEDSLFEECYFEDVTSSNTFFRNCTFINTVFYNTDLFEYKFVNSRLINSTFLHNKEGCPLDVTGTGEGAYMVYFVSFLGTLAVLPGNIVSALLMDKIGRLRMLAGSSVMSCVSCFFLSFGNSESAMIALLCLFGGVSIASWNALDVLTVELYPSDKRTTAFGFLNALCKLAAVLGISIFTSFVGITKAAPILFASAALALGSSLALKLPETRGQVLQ
Experimental: In Part B target occupancy in the brain was measured by PET-scans (GE Signa) with the PET-ligand [^11C]-UCB-J ([Nabulsi et al., 2016]; [Koole et al., 2019]) at three different time points: pre-dose, around Tmax (estimated on data collected in Part A), and approximately 24 h post-dose. [^11C]-UCB-J was administered as an intravenous bolus into the antecubital vein over at least 15 s, followed by saline flush. An arterial line in the radial artery was placed in each subject to collect arterial blood samples to reconstruct a metabolite-corrected arterial plasma input function.
Dynamic PET scans were acquired in 3D list-mode for 90 min. List-mode data were rebinned into […] with a gradually increasing frame duration (6 × 15 s—3 × 30 s—3 × 60 s—2 × 90 s—2 × 3 min—9 × 5 min—3 × 10 min) and corrected for deadtime, randoms, and scatter. To correct for attenuation, a Zero-Echo Time (ZTE) scan was acquired simultaneously with the PET data to generate a subject-specific, MR-based attenuation map. Each frame was reconstructed with an iterative algorithm (OSEM—Ordered Subsets Expectation Maximization, four iterations, 28 subsets), modeling detector response, and using time of flight information (TOF). Each reconstructed frame consisted of 89 slices with a matrix size of 192 × 192, corresponding to an in-plane pixel size of 1.56 mm and a slice separation of 2.78 mm. Finally, smoothing was performed by applying a Gaussian filter (4.5 mm Full Width Half Maximum–FWHM) to each time frame.
SDI-118 SV2A occupancy was estimated globally using a full kinetic one-tissue compartmental modeling approach with an arterial input function (1TCM), and target occupancy was assessed with a Lassen plot using 13 main regions of interest: the overall cortex, the frontal, temporal, parietal and occipital cortex, the insula, the anterior and posterior cingulate cortex, the cerebellum, the striatum, the thalamus, the hippocampus, and the brainstem.
The PK/PD analysis set included all subjects from Part B with at least one available valid combined measurement of PK and PD, who received treatment and experienced no protocol deviations with relevant impact on PK or PD data. The global target occupancy based on the 1TCM method was analyzed as a function of the first PK concentration during the Tmax and 24-h post-dose scans. To estimate the relationship between the observed concentration at the beginning of the PET measurement and the receptor occupancy, a mixed-effect maximal effective concentration (Emax) model with two parameters Emax and half maximal effective concentration (EC50), with a random intercept was used. Parameter estimates, standard errors, and 95% confidence intervals were reported. Predictions from the model were reported with 95% confidence and prediction intervals to inform the required doses to produce these target occupancy values at Tmax and 24-h post-dose.

[5] = target: human recombinant SV2A (hSV2A) (Homo sapiens, UniProt Q7L0J3); assay: in vitro radioligand binding study using human recombinant SV2A; details: read-out: half maximal inhibitory concentration (IC50)
Sequence of human recombinant SV2A (hSV2A) (Q7L0J3 whole entry): as above
Source text: (§1) ([Löscher et al., 2016]). […] ([Lynch et al., 2004]; [Matagne et al., 2008]).

[6] = cardiovascular safety pharmacology study in dogs; format: in vivo
[7] = design: species or system rats; details: rat, in vivo
[8] = anti-convulsant effects (preclinical); format: in vivo; details: despite good brain penetration and target occupancy
Source text: as §1

[9] = Emax model excluding 22-h post-dose data of the 1 mg group

## O=C1C[C@H](c2cc(F)c(F)c(F)c2)CN1Cn1ncnc1Cl [SDI-118]
[1]
  activity in screening panel of receptors and enzymes: no activity was observed
hERG
  potential to inhibit hERG: low potential to inhibit hERG
SV2A [2]
  SV2A occupancy at which MABEL appeared to start: approximately 10%
[3]
  onset time of dizziness, hypersomnia, somnolence after dose administration: up to 4 h
SV2A [4]; 1 mg oral, approximately 24 h after administration
  mean SV2A occupancy: ~0%
SV2A [4]; 1 mg oral, around Tmax (2 h post-dose), 1TC global method
  mean SV2A occupancy: 23%
SV2A [4]; 2 mg oral, approximately 24 h after administration
  mean SV2A occupancy: 20%
SV2A [4]; 2 mg oral, around Tmax, 1TC global method
  mean SV2A occupancy: 41%
SV2A [4]; 10 mg once a day, model prediction
  predicted mean SV2A occupancy at trough level at steady state: 76%
SV2A [4]; 10 mg oral, approximately 24 h after administration
  mean SV2A occupancy: 48%
SV2A [4]; 10 mg oral, around Tmax, 1TC global method
  mean SV2A occupancy: 69% and ~70%
SV2A [4]; 20 mg oral, approximately 24 h after administration
  mean SV2A occupancy: 61%
SV2A [4]; 20 mg oral, around Tmax, 1TC global method (peak occupancy)
  mean SV2A occupancy: 76%
SV2A [4]; 20 mg oral, around Tmax, Part B
  mean plasma concentration: 159 ± 20.5 ng/mL
SV2A [4]; 80 mg dose, predicted
  occupancy as share of predicted maximum: 96%
SV2A [4]; [9]
  EC50 of SV2A occupancy (plasma concentration): 28.2 ng/mL
  Emax of SV2A occupancy: 90.3%
SV2A [4]; Figure 3
  plasma level predicted to render ~90% of maximal occupancy: ~200 ng/mL
SV2A [4]; Tmax and 24 h post-dose, excluding 24 h data of 1 mg
  EC50 of plasma concentration-occupancy relationship (Figure 3): around 25 ng/ml
SV2A [4]; mixed-effect Emax model
  EC90 of SV2A occupancy (concentration where 90% of the maximum effect is reached): 245 ng/mL
SV2A [4]; mixed-effect Emax model, all data, 95% CI 18.4 to 36.3 ng/ml
  EC50 of SV2A occupancy (plasma concentration): 27.3 ng/mL
SV2A [4]; mixed-effect Emax model, all data, 95% CI 80.1%-98.4%
  Emax of SV2A occupancy: 89.2%
SV2A [4]; possible target related effect
  occupancy levels at which mild and transient side effects were seen in some individuals: > 60%
[5]
  IC50: 13 nM
[6]
  findings in cardiovascular safety pharmacology study: absence of any adverse findings
[7]
  no observed adverse effect level (NOAEL): 150 mg/kg/day
[8]
  anti-convulsant effects: without anti-convulsant effects
